From ChEMBL document CHEMBL3507680, “University of Dundee, Gates Library screen for HepG2 cell viability”

Assay: Human HepG2 cell viability assay in 384 well format
Assay type: toxicity, cell-based
Design: dose 125 nL, time 70.5 hour; concentration not given beside the values
Conditions: HepG2 cells, read-out: Inhibition

Point of comparison: OCC1(O)CCCN(Cc2nnc(-c3ccccc3)o2)CC1 (centres undefined), cytotoxicity at 70.5 h -7.78%. Against it:
- CCC[C@H]1CN(C(=O)c2ccc3[nH]c(CO)nc3c2)C[C@@H]1N — lower, -27.1%
- Cn1cc(C(=O)N2CCCC(c3ncc[nH]3)C2)cn1 (centres undefined) — higher, -7.17%
- CSCC(=O)NC1CC(=O)N(CCc2ccccc2)C1 (centres undefined) — lower, -10.9%
- CCCN1CCN(C(=O)c2ccc3nc(C)oc3c2)[C@H]2CS(=O)(=O)C[C@H]21 — higher, -7.59%
- COC(=O)c1ccc(C(=O)N2CCCC(Nc3ccc(F)cc3)C2)cc1 (centres undefined) — higher, -1.16%
- COc1ccc2c(c1)C(C(=O)NCCN1CCNC1=O)CC(=O)N2 (centres undefined) — higher, 16.8%
- CC(C)N1CC(C(=O)N2CCN(CCn3cccc3)CC2)CC1=O (centres undefined) — higher, -3.03%
- Cn1nccc1C(=O)N1CCCC1c1ccc(C(=O)N2CCOCC2)s1 (centres undefined) — higher, 0.297%
- CCNc1ncc(C(=O)NC2CCc3ccccc3C2)cn1 (centres undefined) — higher, 54.4%
- CC(=O)NCCNC(=O)C(c1ccccc1C)N(C)C (centres undefined) — higher, 12.4%
- CCCSCC(=O)N1C[C@@H]2CC[C@H](C1)N(Cc1ccccn1)C2=O — higher, -5.83%
- Fc1ccccc1CC1CCN(Cc2ccccn2)CC1 — higher, -5.22%
- CCC[C@@H]1CN(C(=O)c2c(F)ccc(OC)c2F)C[C@H]1C(=O)O — higher, -0.545%
- CN1CCN([C@@H]2CCN(CC3=Cc4cc(Cl)ccc4OC3)C[C@H]2O)CC1 — higher, -0.445%
- Cc1nc(CN(C)C(=O)Nc2cccc(C)c2C)no1 — lower, -9.32%
- CCn1c(Cn2cncn2)nnc1C1CCN(C2CCOCC2)CC1 — higher, 34.9%
- CC(=O)NC(C)C1=CCCN(Cc2ccc(C(=O)O)cc2)C1 (centres undefined) — higher, 2.27%
- O=C1O[C@@H]2CN(Cc3ccncc3)C[C@@H]2N1CCCN1CCOCC1 — higher, -3.93%
- Cc1ccc2cc(CN(C)Cc3ccncn3)c(=O)[nH]c2c1 — lower, -13.2%
- CCN(Cc1noc(C)n1)C(=O)C(c1cccc(C)c1)N(C)C (centres undefined) — higher, 10.7%
- CCN(CCN1CCCCCC1)C(=O)COc1cccnc1 — higher, 16%
- COc1ccccc1[C@@H]1CN(Cc2ccncc2)C[C@H]1C(=O)O — higher, 9.71%
- c1cn(-c2ccc(N3CCC(NC4CC4)CC3)cc2)cn1 — lower, -14.2%
- CC(C)CC(O)C1CCN(C(=O)c2coc(CN3CCOCC3)c2)CC1 (centres undefined) — higher, -7.32%
- O=C(Cn1ccc(=O)cc1)NCc1ccc2sccc2c1 — lower, -7.85%
- O=C1OCC(CO)N1Cc1cccc(Cl)c1F (centres undefined) — higher, 26.5%
- O=C(c1ccccc1)C1CCN(C(=O)CC2COCCN2)CC1 (centres undefined) — higher, 1.52%
- CN(C)S(=O)(=O)NCc1cccnc1Oc1ccc(F)c(F)c1 — higher, -4.24%
- CC(C)Nc1cc(N2CCC(n3cc(CCO)nn3)CC2)ncn1 — higher, 16.9%
- CN1[C@H]2CC[C@@H]1CN(c1nc(-c3ccncc3)nc3c1cnn3C)CC2 — higher, -2.38%
- c1ccc(-c2nnc(N3CCCC4(CCOC4)C3)s2)cc1 (centres undefined) — higher, 1.41%
- O=C(c1cncc(NCC2COc3ccccc3C2)n1)N1CCOCC1 (centres undefined) — higher, -7.07%
- COc1ccc(OCc2cc(C(=O)N3CCCCO3)n[nH]2)c(Cl)c1 — lower, -19.5%
- CCc1ncc(C(=O)N2CC[C@@H]3CC[C@H](C2)N3C)cn1 — lower, -14%
- O=C(CN1CCNC1=O)N1CCc2nnc(-c3ccccc3)n2CC1 — higher, -1.95%
- CCn1nc(C)c(NC(=O)CN(C)C(C)c2nccs2)c1C (centres undefined) — higher, -6.95%
- Cc1cccnc1CNC(=O)CC1C(=O)NCCN1CC(C)(C)C (centres undefined) — lower, -10.2%
- CCc1cc(CN(C)C(=O)c2cnn[nH]2)on1 — lower, -9.04%
- Cc1ccccc1C(C(=O)NCCS(C)(=O)=O)N(C)C (centres undefined) — lower, -14.5%
- O=C1CCCCCN1Cc1nc(C2(c3ccc(F)cc3)CCOC2)no1 (centres undefined) — higher, 18.4%
- COCCNc1cc(-c2ccccc2S(N)(=O)=O)c2cc[nH]c2n1 — higher, -7.36%
- CC(C)n1cnnc1CN(C)C(=O)c1ccccc1-n1cncn1 — higher, 0.803%
- O=C1N(CC2CC2)CCCC1(O)CN1CCc2[nH]ncc2C1 (centres undefined) — higher, -4.29%
